Experimental data published in the NIST ThermoML archive (doi:10.1016/j.jct.2008.07.021).
± gives the expanded uncertainty stated by the source.

Columns and labels:
[1] = Crystal; DTA
[2] = molar enthalpy of vaporization or sublimation; conditions: 298.15 K; Crystal; Static calorimetry
[3] = Molar enthalpy of transition or fusion; conditions: Crystal; DSC

Row | Triple point temperature [1] [K] | molar enthalpy [2] [kcal/mol] | Molar enthalpy of transition or fusion [3] [kcal/mol] | SMILES
1 | 362.52 ± 0.39 | 23.4 ± 0.215 | 5.29 ± 0.124 | COc1cccc2c1CCCC2=O [3,4-dihydro-5-methoxy-1(2H)-naphthalenone]
2 | 351.27 ± 0.49 | 25 ± 0.43 | 5.45 ± 0.182 | COc1ccc2c(c1)CCCC2=O [3,4-dihydro-6-methoxy-1(2H)naphthalenone]
3 | 334.79 ± 0.39 | 24.6 ± 0.43 | 5.54 ± 0.127 | COc1ccc2c(c1)C(=O)CCC2 [7-methoxy-1-tetralone]
